ChEMBL document CHEMBL1201862, “PubChem BioAssay data set” (2004)
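A five-concentration, 48-hour dose response in 96-well plates underlies each endpoint, interpolated linearly between surrounding concentrations. GI50: concentration for 50% inhibition of growth.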 Active and inactive are the calls of the source. Cut-off read from the data, not from the text of the source: active = GI50 up to about 1.1 µM and inactive = higher.

How the values were obtained:
Assay in all cases: growth of human tumour cells (NCI), 48 h
786-0 = system: 786-0
A549 = system: A549
ACHN = system: ACHN
CAKI-1 = system: CAKI-1
CCRF-CEM = system: CCRF-CEM
COLO 205 = system: COLO 205
DLD-1 = system: DLD-1
DMS-114 = system: DMS-114
DMS-273 = system: DMS-273
EKVX = system: EKVX
HCC 2998 = system: HCC 2998
HCT-116 = system: HCT-116
HCT-15 = system: HCT-15
HL-60 = system: HL-60
HOP-18 = system: HOP-18
HOP-62 = system: HOP-62
HT-29 = system: HT-29
IGROV-1 = system: IGROV-1
K562 = system: K562
KM-20L2 = system: KM-20L2
KM12 = system: KM12
LXFL 529 = system: LXFL 529
M14 = system: M14
M19-MEL = system: M19-MEL
MOLT-4 = system: MOLT-4
Malme-3M = system: Malme-3M
NCI-H226 = system: NCI-H226
NCI-H23 = system: NCI-H23
NCI-H460 = system: NCI-H460
NCI-H522 = system: NCI-H522
OVCAR-3 = system: OVCAR-3
OVCAR-4 = system: OVCAR-4
OVCAR-5 = system: OVCAR-5
OVCAR-8 = system: OVCAR-8
RPMI-8226 = system: RPMI-8226
RXF 393 = system: RXF 393
SF-268 = system: SF-268
SF-295 = system: SF-295
SF-539 = system: SF-539
SK-MEL-28 = system: SK-MEL-28
SK-MEL-2 = system: SK-MEL-2
SK-MEL-5 = system: SK-MEL-5
SK-OV-3 = system: SK-OV-3
SN12C = system: SN12C
SNB-19 = system: SNB-19
SNB-75 = system: SNB-75
SNB-78 = system: SNB-78
SR = system: SR
SW-620 = system: SW-620
U-251 = system: U-251
UACC-257 = system: UACC-257
UACC-62 = system: UACC-62
UO-31 = system: UO-31
A498 = system: A498
HOP-92 = system: HOP-92
LOX IMVI = system: LOX IMVI
TK-10 = system: TK-10

Measured: GI50

O=C1CC2CCN(C(=O)c3ccccc3)CC2CCN1.O=C1CCC2CC(C(=O)c3ccccc3)CCC2CN1 (configuration not stated)
> 100 µM: HCT-15
inactive: 786-0 > 100 µM | A549 > 100 µM | ACHN > 100 µM | CAKI-1 > 100 µM | CCRF-CEM > 100 µM | COLO 205 > 100 µM | DLD-1 > 100 µM | DMS-114 > 100 µM | DMS-273 > 100 µM | EKVX > 100 µM | HCC 2998 > 100 µM | HCT-116 > 100 µM | HL-60 > 100 µM | HOP-18 > 100 µM | HOP-62 > 100 µM | HT-29 > 100 µM | IGROV-1 > 100 µM | K562 > 100 µM | KM-20L2 > 100 µM | KM12 > 100 µM | LXFL 529 > 100 µM | M14 > 100 µM | M19-MEL > 100 µM | MOLT-4 > 100 µM | Malme-3M > 100 µM | NCI-H226 > 100 µM | NCI-H23 > 100 µM | NCI-H460 > 100 µM | NCI-H522 > 100 µM | OVCAR-3 > 100 µM | OVCAR-4 > 100 µM | OVCAR-5 > 100 µM | OVCAR-8 > 100 µM | RPMI-8226 > 100 µM | RXF 393 > 100 µM | SF-268 > 100 µM | SF-295 > 100 µM | SF-539 > 100 µM | SK-MEL-28 > 100 µM | SK-MEL-2 > 100 µM | SK-MEL-5 42.6 µM | SK-OV-3 > 100 µM | SN12C > 100 µM | SNB-19 > 100 µM | SNB-75 > 100 µM | SNB-78 > 100 µM | SR > 100 µM | SW-620 > 100 µM | U-251 > 100 µM | UACC-257 > 100 µM | UACC-62 52.1 µM | UO-31 > 100 µM

COc1ccc(/C=C2\N=C(c3ccccc3)N(Nc3nnc(NN4C(=O)/C(=C/c5ccc(OC)cc5)N=C4c4ccccc4)c4ccccc34)C2=O)cc1
40.8 µM: HCT-15
inactive: 786-0 56.9 µM | A498 > 100 µM | A549 > 100 µM | ACHN > 100 µM | CCRF-CEM 30.7 µM | COLO 205 > 100 µM | DLD-1 42.3 µM | DMS-114 61 µM | DMS-273 41.3 µM | EKVX > 100 µM | HCT-116 94.4 µM | HL-60 30 µM | HOP-18 92.3 µM | HOP-62 62.7 µM | HOP-92 > 100 µM | HT-29 57.5 µM | IGROV-1 > 100 µM | K562 38.1 µM | KM-20L2 53.2 µM | KM12 17.2 µM | LOX IMVI 20.7 µM | LXFL 529 44.4 µM | M14 > 100 µM | M19-MEL 58.7 µM | MOLT-4 29.6 µM | NCI-H226 96.4 µM | NCI-H23 > 100 µM | NCI-H460 > 100 µM | NCI-H522 35.1 µM | OVCAR-4 53.2 µM | OVCAR-5 > 100 µM | OVCAR-8 > 100 µM | RPMI-8226 26.4 µM | RXF 393 > 100 µM | SF-268 81.8 µM | SF-295 > 100 µM | SF-539 70.6 µM | SK-MEL-28 71.1 µM | SK-MEL-5 48.5 µM | SN12C 68.5 µM | SNB-19 > 100 µM | SNB-75 68.9 µM | SNB-78 > 100 µM | SR 26.6 µM | SW-620 55.2 µM | U-251 94.8 µM | UACC-257 > 100 µM | UACC-62 70.5 µM

O=[N+]([O-])c1cc(/C=N/NS(=O)(=O)c2ccc(F)cc2)c(O)c([N+](=O)[O-])c1
26.5 µM: HCT-15
inactive: 786-0 41.3 µM | A498 29.9 µM | A549 48 µM | ACHN 40.5 µM | CAKI-1 76.2 µM | CCRF-CEM 37.6 µM | COLO 205 18.9 µM | DLD-1 51.3 µM | DMS-114 32.2 µM | DMS-273 30.8 µM | EKVX > 100 µM | HCC 2998 > 100 µM | HCT-116 33.7 µM | HL-60 38.5 µM | HOP-18 85.3 µM | HOP-62 43.2 µM | HOP-92 38.4 µM | HT-29 22.3 µM | IGROV-1 69.5 µM | K562 41.2 µM | KM-20L2 25.9 µM | KM12 21 µM | LOX IMVI 39.5 µM | M14 22.9 µM | M19-MEL 49.8 µM | MOLT-4 21.9 µM | Malme-3M 63.1 µM | NCI-H23 24.9 µM | NCI-H460 28.8 µM | NCI-H522 21.2 µM | OVCAR-3 29 µM | OVCAR-4 58.1 µM | OVCAR-5 > 100 µM | OVCAR-8 24.8 µM | RPMI-8226 27.7 µM | RXF 393 36.6 µM | SF-268 40.1 µM | SF-295 52.8 µM | SF-539 22 µM | SK-MEL-28 82.8 µM | SK-MEL-2 45.2 µM | SK-MEL-5 25.7 µM | SK-OV-3 30.1 µM | SN12C 33.7 µM | SNB-19 33.7 µM | SNB-75 25.9 µM | SNB-78 52.6 µM | SR 18.4 µM | SW-620 41.3 µM | TK-10 57.1 µM | U-251 23.8 µM | UACC-257 42.3 µM | UACC-62 46.3 µM | UO-31 > 100 µM

O=C(CN1C(=O)c2ccccc2C1=O)OC1C=CCCC1 (configuration not stated)
> 100 µM: HCT-15
inactive: 786-0 > 100 µM | A498 > 100 µM | A549 > 100 µM | ACHN > 100 µM | CAKI-1 > 100 µM | CCRF-CEM > 100 µM | COLO 205 > 100 µM | DLD-1 > 100 µM | DMS-273 > 100 µM | EKVX > 100 µM | HCC 2998 > 100 µM | HCT-116 > 100 µM | HL-60 > 100 µM | HOP-18 > 100 µM | HOP-62 > 100 µM | IGROV-1 > 100 µM | K562 > 100 µM | KM-20L2 > 100 µM | KM12 > 100 µM | LXFL 529 > 100 µM | M14 > 100 µM | M19-MEL > 100 µM | MOLT-4 > 100 µM | Malme-3M > 100 µM | NCI-H226 > 100 µM | NCI-H460 > 100 µM | NCI-H522 72.8 µM | OVCAR-4 > 100 µM | OVCAR-8 > 100 µM | RPMI-8226 > 100 µM | RXF 393 > 100 µM | SF-268 > 100 µM | SF-539 > 100 µM | SK-MEL-28 > 100 µM | SK-MEL-2 > 100 µM | SK-MEL-5 > 100 µM | SK-OV-3 > 100 µM | SN12C > 100 µM | SNB-19 > 100 µM | SNB-75 > 100 µM | SNB-78 > 100 µM | SR > 100 µM | SW-620 > 100 µM | TK-10 > 100 µM | U-251 > 100 µM | UACC-257 > 100 µM | UACC-62 > 100 µM | UO-31 > 100 µM

Cc1ccc(C(=O)C#Cc2cnc(O)nc2O)cc1
inactive: 786-0 13.4 µM | A498 14.7 µM | A549 18.3 µM | ACHN 15.6 µM | CAKI-1 16.9 µM | CCRF-CEM 3.44 µM | COLO 205 13 µM | DLD-1 10.3 µM | DMS-273 16.1 µM | EKVX 17.2 µM | HCC 2998 12.7 µM | HCT-116 5.94 µM | HL-60 11.5 µM | HOP-18 18.6 µM | HOP-62 29.3 µM | HOP-92 18.6 µM | HT-29 21.5 µM | IGROV-1 16.7 µM | K562 6.07 µM | KM12 14.7 µM | LOX IMVI 3.92 µM | M14 13.2 µM | M19-MEL 14.7 µM | MOLT-4 3.41 µM | Malme-3M 5.56 µM | NCI-H226 17.4 µM | NCI-H23 17.5 µM | NCI-H460 16.7 µM | OVCAR-3 13.5 µM | OVCAR-4 21.8 µM | OVCAR-5 18.9 µM | OVCAR-8 12.4 µM | RXF 393 2.99 µM | SF-268 13.1 µM | SF-295 29.2 µM | SF-539 4.09 µM | SK-MEL-28 16.9 µM | SK-MEL-2 14.4 µM | SK-MEL-5 13.6 µM | SK-OV-3 25.2 µM | SN12C 4.55 µM | SNB-19 18.2 µM | SNB-75 19.1 µM | SNB-78 11.9 µM | SW-620 8.69 µM | TK-10 18 µM | U-251 12.9 µM | UACC-257 14.2 µM | UACC-62 10.2 µM | UO-31 17.4 µM
13.8 µM: HCT-15
